In patent publication US20240002388A1, “PYRIMIDINONE COMPOUNDS AND USES THEREOF” (HUTCHISON MEDIPHARMA LIMITED, priority 2020, published 2024):

Tested on: U937 cell line (human histiocytic lymphoma cell line)
Experiment: U937 cell viability assay (TNF-α + Z-VAD-FMK induced necroptosis)
Assay type: cell-based
Conditions: Homo sapiens, U-937; U937 cells, hTNF-α 0.1 μg/mL + Z-VAD-FMK 50 μM, 20 hours, CellTiter-Glo
Method in brief: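 U937 cells (1.75×10^4/well, 1% FBS RPMI 1640) were preincubated 1 h with compound (0.0005–1.0 μM, 0.3% DMSO) and 50 μM Z-VAD-FMK, then stimulated with 0.1 μg/mL TNF-α for 20 h at 37 °C. Viability was read by CellTiter-Glo luminescence. Inhibition was normalised between TNF-α+Z-VAD and unstimulated wells, and IC50 was fitted.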

| SMILES | IC50 [nM] |
| --- | --- |
| CC(C)n1ncc2cnc(C(=O)NC3(c4ccc(-c5cncn(C6CCC6)c5=O)cc4)CC3)nc21 [Compound 42] | 7 |
| CC[C@H](C)n1cncc(-c2ccc(C3(NC(=O)c4ncc5cnn(C(C)C)c5n4)CC3)cc2)c1=O [Compound 43] | 2 |
| CC[C@@H](C)n1cncc(-c2ccc(C3(NC(=O)c4ncc5cnn(C(C)C)c5n4)CC3)cc2)c1=O [Compound 44] | 2 |
| CC(C)Cn1cncc(-c2ccc(C3(NC(=O)c4ncc5cnn(C(C)C)c5n4)CC3)cc2)c1=O [Compound 45] | 2 |
| Cn1cncc(-c2ccc(C3(NC(=O)c4nc5n(n4)[C@@H](c4ccccc4)CC5)CC3)cc2)c1=O [Compound 54, (R)—N-(1-(4-(1-methyl-6-oxo-1,6-dihydropyrimidin-5-yl)phenyl)cyclopropyl)-5-phenyl-6,7-dihydro-5H-pyrrolo[1,2-b][1,2,4]triazole-2-carboxamide] | 12 |
| C[C@H](c1ccccc1)n1cnc(C(=O)NC2(c3ccc(-c4cncn(C)c4=O)cc3)CC2)n1 [Compound 55, (R)—N-(1-(4-(1-methyl-6-oxo-1,6-dihydropyrimidin-5-yl)phenyl)cyclopropyl)-1-(1-phenylethyl)-1H-1,2,4-triazole-3-carboxamide] | 7 |
| CC(C)n1cncc(-c2ccc(C3(NC(=O)c4ncc5cnn(C6COC6)c5n4)CC3)cc2)c1=O [Compound 60] | 66 |
| CC(C)n1cncc(-c2ccc(C3(NC(=O)c4ncc5cnn(CC6CC6)c5n4)CC3)cc2)c1=O [Compound 61] | 3 |
| CC(C)n1cncc(-c2ccc(C3(NC(=O)c4ncc5cnn(CC6CCC6)c5n4)CC3)cc2)c1=O [Compound 62] | 2 |
| CC(C)n1cncc(-c2ccc(C3(NC(=O)c4ncc5cnn(-c6ccccn6)c5n4)CC3)cc2)c1=O [Compound 63] | 51 |
| O=C(NC1(c2ccc(-c3cncn(CC4CC4)c3=O)cc2)CC1)c1ncc2cnn(CC3CC3)c2n1 [Compound 64] | 2 |
| CC(C)n1ncc2cnc(C(=O)NC3(c4ccc(-c5cncn(C6CC(F)(F)C6)c5=O)cc4)CC3)nc21 [Compound 65] | 7 |
| CC(C)n1ncc2cnc(C(=O)NC3(c4ccc(-c5cncn(CC6CCC6)c5=O)cc4)CC3)nc21 [Compound 66] | 3 |
| CC(C)n1ncc2cnc(C(=O)NC3(c4ccc(-c5cncn([C@H]6C[C@@H]6F)c5=O)cc4)CC3)nc21 [Compound 67] | 91 |
| C[C@H](n1cncc(-c2ccc(C3(NC(=O)c4ncc5cnn(CC6CC6)c5n4)CC3)cc2)c1=O)C(F)(F)F [Compound 68] | 6 |
| CC(C)n1ncc2cnc(C(=O)NC3(c4ccc(-c5cncn([C@@H]6C[C@@H]6F)c5=O)cc4)CC3)nc21 [Compound 69] | 9 |
| C[C@@H](n1cncc(-c2ccc(C3(NC(=O)c4ncc5cnn(CC6CC6)c5n4)CC3)cc2)c1=O)C(F)(F)F [Compound 70] | 2 |
| C[C@H](n1cncc(-c2ccc(C3(NC(=O)c4ncc5cnn(CC6CC6)c5n4)CC3)c(F)c2)c1=O)C(F)(F)F [Compound 71] | 3 |
| CC(C)n1cncc(-c2ccc(C3(NC(=O)c4ncc5cnn(CC6CC6)c5n4)CC3)c(F)c2)c1=O [Compound 72] | 2 |

| SMILES | IC50 [nM] |
| --- | --- |
| CC(C)n1cncc(-c2ccc(C3(NC(=O)c4ncc5cnn(CC6CC6)c5n4)CC3)cc2F)c1=O [Compound 73] | 2 |
| CC(C)n1ncc2cnc(C(=O)NC3(c4ccc(-c5cncn(CC6CC6)c5=O)cc4F)CC3)nc21 [Compound 74] | 1 |
| CC(C)n1ncc2cnc(C(=O)NC3(c4ccc(-c5cncn(CC6CC6)c5=O)c(F)c4)CC3)nc21 [Compound 75] | 2 |
| C[C@@H](n1cncc(-c2ccc(C3(NC(=O)c4ncc5cnn(CC6CC6)c5n4)CC3)c(F)c2)c1=O)C(F)(F)F [Compound 76] | 3 |
| CC(C)n1ncc2cnc(C(=O)NC3(c4ccc(-c5cncn(C6CCOCC6)c5=O)cc4)CC3)nc21 [Compound 77] | 10 |
| CC(C)n1ncc2cnc(C(=O)NC3(c4ccc(-c5cncn(C6(C)CC6)c5=O)cc4)CC3)nc21 [Compound 78] | 8 |
| CC(C)n1ncc2cnc(C(=O)NC3(c4ccc(-c5cncn(C6(C)CCC6)c5=O)cc4)CC3)nc21 [Compound 79] | 2 |
| CC(C)n1ncc2cnc(C(=O)NC3(c4ccc(-c5cncn([C@H](C)C6CC6)c5=O)cc4)CC3)nc21 [Compound 84, (R)—N-(1-(4-(1-(1-cyclopropylethyl)-6-oxo-1,6-dihydropyrimidin-5-yl)phenyl)cyclopropyl)-1-i-propyl-1H-pyrazolo[3,4-d]pyrimidine-6-carboxamide] | 1 |
| CC(C)n1ncc2cnc(C(=O)NC3(c4ccc(-c5cncn([C@@H](C)C6CC6)c5=O)cc4)CC3)nc21 [Compound 85, (S)—N-(1-(4-(1-(1-cyclopropylethyl)-6-oxo-1,6-dihydropyrimidin-5-yl)phenyl)cyclopropyl)-1-i-propyl-1H-pyrazolo[3,4-d]pyrimidine-6-carboxamide] | 2 |
| CC(C)n1ncc2cnc(C(=O)NC3(c4ccc(-c5cncn(CC6(C)CC6)c5=O)cc4)CC3)nc21 [Compound 86] | 1 |
| CC(C)n1ncc2cnc(C(=O)NC3(c4ccc(-c5cncn([C@H]6C[C@H](F)C6)c5=O)cc4)CC3)nc21 [Compound 87, N-(1-(4-(1-(trans-3-fluorocyclobutyl)-6-oxo-1,6-dihydropyrimidin-5-yl)phenyl)cyclopropyl)-1-i-propyl-1H-pyrazolo[3,4-d]pyrimidine-6-carboxamide] | 11 |
| CC(C)n1cncc(-c2ccc(C3(NC(=O)c4ncc5cnn([C@H](C)C6CC6)c5n4)CC3)cc2)c1=O [Compound 89, (R)-1-(1-cyclopropylethyl)-N-(1-(4-(1-i-propyl-6-oxo-1,6-dihydropyrimidin-5-yl)phenyl)cyclopropyl)-1H-pyrazolo[3,4-d]pyrimidine-6-carboxamide] | 5 |
| CC(C)n1cncc(-c2ccc(C3(NC(=O)c4ncc5cnn([C@@H](C)C6CC6)c5n4)CC3)cc2)c1=O [Compound 90, (S)-1-(1-cyclopropylethyl)-N-(1-(4-(1-i-propyl-6-oxo-1,6-dihydropyrimidin-5-yl)phenyl)cyclopropyl)-1H-pyrazolo[3,4-d]pyrimidine-6-carboxamide] | 4 |
| CC(C)n1cncc(-c2ccc(C3(NC(=O)c4ncc5cnn(C(C)C)c5n4)CC3)c(F)c2Cl)c1=O [Compound 91] | 11 |
| CC(C)n1cncc(-c2cc(F)c(C3(NC(=O)c4ncc5cnn(C(C)C)c5n4)CC3)c(F)c2)c1=O [Compound 92] | 100 |
| CC(C)n1cncc(-c2ccc(C3(NC(=O)c4ncc5cnn(C(C)C)c5n4)CC3)c(F)c2F)c1=O [Compound 93] | 6 |
| CC(C)n1ncc2cnc(C(=O)NC3(c4cc(F)c(-c5cncn(CC6CC6)c5=O)cc4F)CC3)nc21 [Compound 94] | 3 |
| CC(C)n1ncc2cnc(C(=O)NC3(c4ccc(-c5cncn(CC6CC6)c5=O)c(F)c4F)CC3)nc21 [Compound 95] | 3 |

Same assay, conditions: U937 cells, hTNF-α 0.1 μg/mL + Z-VAD-FMK 50 μM, 20 hours, CellTiter-Glo

| SMILES | IC50 [nM] |
| --- | --- |
| CC(C)n1ncc2cnc(C(=O)NC3(c4ccc(-c5cncn([C@H]6C[C@@H](F)C6)c5=O)cc4)CC3)nc21 [Compound 88, N-(1-(4-(1-(cis-3-fluorocyclobutyl)-6-oxo-1,6-dihydropyrimidin-5-yl)phenyl)cyclopropyl)-1-i-propyl-1H-pyrazolo[3,4-d]pyrimidine-6-carboxamide] | 11 |
